For one test, the target named is lethal factor (LF) (Bacillus anthracis, UniProt P15917). As to the kind of experiment: biochemical. The class given is biochemical.
The target of another test is BoNT A (Clostridium botulinum, UniProt P0DPI0). As to the kind of experiment: biochemical.

By IC50 is commonly meant the concentration at which inhibition is half-maximal. By Ki is commonly meant a dissociation constant, usually derived from enzyme kinetics or from competition with a known ligand.

Like-named read-outs stand apart in the source and are kept apart here.

Chain of BoNT A (P0DPI0 whole entry, looked up): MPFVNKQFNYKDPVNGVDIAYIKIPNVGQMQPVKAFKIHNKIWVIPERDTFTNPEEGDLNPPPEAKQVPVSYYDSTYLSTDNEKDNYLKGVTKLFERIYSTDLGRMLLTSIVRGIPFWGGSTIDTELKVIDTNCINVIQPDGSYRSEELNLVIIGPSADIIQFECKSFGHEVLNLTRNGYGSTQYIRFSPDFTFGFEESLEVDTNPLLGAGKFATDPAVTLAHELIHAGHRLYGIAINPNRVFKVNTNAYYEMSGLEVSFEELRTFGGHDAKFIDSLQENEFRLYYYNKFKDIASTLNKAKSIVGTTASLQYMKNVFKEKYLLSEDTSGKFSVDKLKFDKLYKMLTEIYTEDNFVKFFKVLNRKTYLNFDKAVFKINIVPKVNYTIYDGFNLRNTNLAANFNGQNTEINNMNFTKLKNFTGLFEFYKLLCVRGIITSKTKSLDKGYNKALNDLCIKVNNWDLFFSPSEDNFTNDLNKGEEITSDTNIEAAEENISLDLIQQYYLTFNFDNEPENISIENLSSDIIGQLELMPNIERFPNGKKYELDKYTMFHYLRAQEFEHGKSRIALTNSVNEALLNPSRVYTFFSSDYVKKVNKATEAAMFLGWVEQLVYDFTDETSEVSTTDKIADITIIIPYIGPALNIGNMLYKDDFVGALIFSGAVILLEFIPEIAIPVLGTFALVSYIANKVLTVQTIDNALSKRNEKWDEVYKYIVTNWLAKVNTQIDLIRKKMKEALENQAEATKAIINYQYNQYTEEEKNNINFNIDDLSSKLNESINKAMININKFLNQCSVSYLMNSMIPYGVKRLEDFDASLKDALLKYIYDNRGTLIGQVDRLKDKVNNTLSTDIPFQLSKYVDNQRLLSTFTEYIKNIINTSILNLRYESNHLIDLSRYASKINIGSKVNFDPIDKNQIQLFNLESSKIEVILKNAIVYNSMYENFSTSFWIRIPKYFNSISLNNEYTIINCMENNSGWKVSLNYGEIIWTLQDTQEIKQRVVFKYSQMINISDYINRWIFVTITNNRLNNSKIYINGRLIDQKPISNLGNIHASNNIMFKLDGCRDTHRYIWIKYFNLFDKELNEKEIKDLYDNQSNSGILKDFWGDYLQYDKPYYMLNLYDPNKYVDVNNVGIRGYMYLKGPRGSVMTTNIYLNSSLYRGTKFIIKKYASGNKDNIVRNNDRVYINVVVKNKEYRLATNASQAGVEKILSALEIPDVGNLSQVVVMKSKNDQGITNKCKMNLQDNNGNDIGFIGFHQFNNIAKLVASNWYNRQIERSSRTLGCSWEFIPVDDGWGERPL
Chain of lethal factor (LF) (P15917 34-809 limits assumed): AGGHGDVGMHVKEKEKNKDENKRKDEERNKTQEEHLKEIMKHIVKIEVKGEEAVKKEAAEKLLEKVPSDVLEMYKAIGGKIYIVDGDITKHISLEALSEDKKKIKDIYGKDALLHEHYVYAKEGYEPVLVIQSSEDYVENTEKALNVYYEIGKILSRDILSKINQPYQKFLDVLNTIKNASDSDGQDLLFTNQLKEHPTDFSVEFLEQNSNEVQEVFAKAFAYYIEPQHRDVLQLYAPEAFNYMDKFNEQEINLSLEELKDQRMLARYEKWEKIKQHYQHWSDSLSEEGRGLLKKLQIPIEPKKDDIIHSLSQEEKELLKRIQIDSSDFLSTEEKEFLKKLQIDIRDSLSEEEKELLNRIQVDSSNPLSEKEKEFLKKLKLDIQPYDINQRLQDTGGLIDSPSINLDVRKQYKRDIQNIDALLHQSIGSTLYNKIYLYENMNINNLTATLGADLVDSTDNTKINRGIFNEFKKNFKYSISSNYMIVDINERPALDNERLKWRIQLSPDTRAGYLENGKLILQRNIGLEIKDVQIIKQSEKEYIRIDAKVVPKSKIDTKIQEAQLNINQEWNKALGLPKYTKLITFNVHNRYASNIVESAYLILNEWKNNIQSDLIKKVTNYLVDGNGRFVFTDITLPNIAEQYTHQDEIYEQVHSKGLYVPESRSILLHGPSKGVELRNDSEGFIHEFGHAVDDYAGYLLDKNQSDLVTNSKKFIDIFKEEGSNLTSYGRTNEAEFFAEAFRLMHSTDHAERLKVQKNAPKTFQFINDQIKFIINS

With `CN(CCOc1ccc(CC2SC(=O)NC2=O)cc1)c1ccccn1` (stereo not drawn) [Compound 2, 5-(4-(2-(methyl(pyridin-2-yl)amino)ethoxy)benzyl)thiazolidine-2,4-dione, reference compound], on lethal factor (LF), the “inhibition of LF, kinetic assay (in words)” value is “did not appreciably inhibit”. Besides, the “inhibition of BoNT A, kinetic assay (in words)” value against BoNT A is recorded as “did not appreciably inhibit”.

Regarding `O=C(O)CN1C(=O)/C(=C/c2ccc(-c3ccc([N+](=O)[O-])cc3Cl)o2)SC1=S` [Compound 4], the half-inhibitory concentration (IC50) on lethal factor (LF) (pH 7.4, read-out: LF IC50) was determined as 2.1 µM; on BoNT A, 11.8 µM.

In the case of `O=C(O)CC(C(=O)O)N1C(=O)/C(=C/c2ccc(-c3ccc(Br)cc3)o2)SC1=S` (stereo not drawn) [Compound 5], the IC50 is 3.98 µM on lethal factor (LF) (pH 7.4, read-out: LF IC50) and 51.6 µM against BoNT A.

In the case of `O=C(O)CCC(C(=O)O)N1C(=O)/C(=C/c2ccc(-c3ccc([N+](=O)[O-])cc3)o2)SC1=S` (stereo not drawn) [Compound 6], the IC50 on lethal factor (LF) (pH 7.4, read-out: LF IC50) amounted to 4.91 µM; against BoNT A it was 148 µM.

Take `O=C(O)C(c1ccccc1)N1C(=O)/C(=C/c2ccc(-c3cccc(Cl)c3)o2)SC1=S` (stereo not drawn) [Compound 8]: the IC50 at lethal factor (LF) (pH 7.4, read-out: LF IC50) was determined as 4.34 µM; against BoNT A, 127 µM.

Turning to `O=C1/C(=C/c2ccc(-c3cccc([N+](=O)[O-])c3)o2)SC(=S)N1CCS(=O)(=O)O` [Compound 9, (Z)-2-(5-((5-(3-nitrophenyl)furan-2-yl)methylene)-4-oxo-2-thioxothiazolidin-3-yl)ethanesulfonic acid], at lethal factor (LF), the affinity, expressed as Ki, was 0.1 µM. Also, the IC50 at lethal factor (LF) (pH 7.4, read-out: LF IC50) is 1.09 µM.

For `O=C1/C(=C/c2ccc(-c3cccc(Cl)c3)o2)SC(=S)N1CCS(=O)(=O)O` [Compound 10, (Z)-2-(5-((5-(3-chlorophenyl)furan-2-yl)methylene)-4-oxo-2-thioxothiazolidin-3-yl)ethanesulfonic acid], the half-maximal inhibitory concentration (IC50) on lethal factor (LF) (pH 7.4, read-out: LF IC50) worked out at 1.7 µM; against BoNT A, 19.9 µM.

As for `O=C1/C(=C/c2ccc(-c3ccc(Cl)c(Cl)c3)o2)SC(=S)N1CCS(=O)(=O)O` [Compound 11, (Z)-2-(5-((5-(3,4-dichlorophenyl)furan-2-yl)methylene)-4-oxo-2-thioxothiazolidin-3-yl)ethanesulfonic acid], the IC50 is 1.78 µM on lethal factor (LF) (pH 7.4, read-out: LF IC50) and 11.1 µM against BoNT A.

`O=C1/C(=C/c2ccc(-c3ccc(Cl)cc3)o2)SC(=S)N1CCS(=O)(=O)O` [Compound 12, (Z)-2-(5-((5-(4-chlorophenyl)furan-2-yl)methylene)-4-oxo-2-thioxothiazolidin-3-yl)ethanesulfonic acid]: on BoNT A, the IC50 was > 200 µM.

Regarding `O=C(O)C(c1ccccc1)N1C(=O)/C(=C/c2ccc(-c3ccc(Cl)cc3Cl)o2)SC1=S` (stereo not drawn) [Compound 13], the Ki on lethal factor (LF) came to 1 µM. The IC50 was 1.2 µM on lethal factor (LF) (pH 7.4, read-out: LF IC50) and > 200 µM against BoNT A.

As for `O=C1/C(=C/c2ccc(-c3cccc(Cl)c3Cl)o2)SC(=S)N1C1CCS(=O)(=O)C1` (stereo not drawn) [Compound 14, (5Z)-5-{[5-(2,3-dichlorophenyl)-2-furyl]methylene}-3-(1,1-dioxidotetrahydrothien-3-yl)-2-thioxo-1,3-thiazolidin-4-one], on BoNT A, the IC50 is > 200 µM.

For the compound `O=C1/C(=C/c2ccc(-c3cc(Cl)ccc3Cl)o2)SC(=S)N1CC1CCCO1` (stereo not drawn) [Compound 16, (Z)-5-((5-(2,5-dichlorophenyl)furan-2-yl)methylene)-3-((tetrahydrofuran-2-yl)methyl)-2-thioxothiazolidin-4-one], the IC50 on BoNT A is > 50 µM.

Regarding `Cc1nc(/C=C2\SC(=S)N(CC(=O)O)C2=O)c(C)o1` [Compound 17, (Z)-2-(5-((2,5-dimethyloxazol-4-yl)methylene)-4-oxo-2-thioxothiazolidin-3-yl)acetic acid], the half-maximal inhibitory concentration (IC50) at lethal factor (LF) (pH 7.4, read-out: LF IC50) is 100 µM; against BoNT A it was > 200 µM.

On to `CC(C)(C)OC(=O)N1CCC(c2nc(/C=C3\SC(=S)N(CC(=O)O)C3=O)cs2)CC1` [Compound 18, (Z)-2-(5-((2-(1-(tert-butoxycarbonyl)piperidin-4-yl)thiazol-4-yl)methylene)-4-oxo-2-thioxothiazolidin-3-yl)acetic acid], for which the IC50 is 20 µM at lethal factor (LF) (pH 7.4, read-out: LF IC50) and 176 µM against BoNT A.

For the compound `Cc1nc(-c2ccccc2)c(/C=C2\SC(=S)N(CC(=O)O)C2=O)s1` [Compound 19, (Z)-2-(5-((2-methyl-4-phenylthiazol-5-yl)methylene)-4-oxo-2-thioxothiazolidin-3-yl)acetic acid], the half-maximal inhibitory concentration (IC50) is 41 µM on lethal factor (LF) (pH 7.4, read-out: LF IC50) and > 200 µM at BoNT A.

In the case of `O=C(O)CN1C(=O)/C(=C/c2c[nH]nc2-c2ccc(C(F)(F)F)cc2)SC1=S` [Compound 27, (Z)-2-(4-oxo-2-thioxo-5-((3-(4-(trifluoromethyl)phenyl)-1H-pyrazol-4-yl)methylene)thiazolidin-3-yl)acetic acid], the figures for the 50% inhibitory concentration (IC50) against lethal factor (LF) and against BoNT A were 24.6 µM and > 200 µM, respectively.

On to `O=C(O)CN1C(=O)/C(=C/c2cc(-c3ccc(Cl)cc3)[nH]n2)SC1=S` [Compound 28], for which the values for the 50% inhibitory concentration (IC50) on lethal factor (LF) and on BoNT A were > 100 µM and > 200 µM, respectively.

On to `O=C(O)CN1C(=O)/C(=C/c2cn(-c3ccccc3)nc2-c2cccs2)SC1=S` [Compound 29, (Z)-2-(4-oxo-5-((1-phenyl-3-(thiophen-2-yl)-1H-pyrazol-4-yl)methylene)-2-thioxothiazolidin-3-yl)acetic acid], for which the 50% inhibitory concentration (IC50) is 3.07 µM on lethal factor (LF) (pH 7.4, read-out: LF IC50) and 160 µM against BoNT A.

As for `O=C(O)CN1C(=O)/C(=C/c2cn(-c3ccccc3)nc2-c2ccccc2)SC1=S` [Compound 30, (Z)-2-(5-((1,3-diphenyl-1H-pyrazol-4-yl)methylene)-4-oxo-2-thioxothiazolidin-3-yl)acetic acid], the half-inhibitory concentration (IC50) at lethal factor (LF) (pH 7.4, read-out: LF IC50) was 6.25 µM; at BoNT A, 111 µM.

Take `O=C(O)CN1C(=O)/C(=C/c2cn(-c3ccccc3)nc2-c2ccc(S(=O)(=O)N3CCOCC3)cc2)SC1=S` [Compound 31]: the IC50 on lethal factor (LF) (pH 7.4, read-out: LF IC50) was 4.26 µM; against BoNT A, > 200 µM.

As for `COc1ccc(-c2nn(-c3ccccc3)cc2/C=C2\SC(=S)N(CC(=O)O)C2=O)cc1C` [Compound 36, (Z)-2-(5-((3-(4-methoxy-3-methylphenyl)-1-phenyl-1H-pyrazol-4-yl)methylene)-4-oxo-2-thioxothiazolidin-3-yl)acetic acid], the 50% inhibitory concentration (IC50) came to 3.58 µM at lethal factor (LF) (pH 7.4, read-out: LF IC50) and 127 µM against BoNT A.

For `CCOc1ccc(-c2nn(-c3ccccc3)cc2/C=C2\SC(=S)N(CC(=O)O)C2=O)c(C)c1` [Compound 37, (Z)-2-(5-((3-(4-ethoxy-2-methylphenyl)-1-phenyl-1H-pyrazol-4-yl)methylene)-4-oxo-2-thioxothiazolidin-3-yl)acetic acid], the concentration for half-maximal inhibition (IC50) came out at 4.87 µM on lethal factor (LF) (pH 7.4, read-out: LF IC50) and 130 µM at BoNT A.

Take `O=C1/C(=C/c2cn(-c3ccccc3)nc2-c2ccc(S(=O)(=O)N3CCOCC3)cc2)SC(=S)N1CCS(=O)(=O)O` [Compound 42, (Z)-2-(5-((3-(4-(morpholinosulfonyl)phenyl)-1-phenyl-1H-pyrazol-4-yl)methylene)-4-oxo-2-thioxothiazolidin-3-yl)ethanesulfonic acid]: the IC50 at lethal factor (LF) (pH 7.4, read-out: LF IC50) turned out to be 1.86 µM; on BoNT A, 85 µM.

On to `O=C1/C(=C/c2cn(-c3ccccc3)nc2-c2ccc(S(=O)(=O)N3CCCCC3)cc2)SC(=S)N1CCS(=O)(=O)O` [Compound 43, (Z)-2-(4-oxo-5-((1-phenyl-3-(4-(piperidin-1-ylsulfonyl)phenyl)-1H-pyrazol-4-yl)methylene)-2-thioxothiazolidin-3-yl)ethanesulfonic acid], for which the half-maximal inhibitory concentration (IC50) at lethal factor (LF) (pH 7.4, read-out: LF IC50) was determined as 2.07 µM; at BoNT A, 20.1 µM.

In the case of `O=C1/C(=C/c2cn(-c3ccccc3)nc2-c2ccccc2)SC(=S)N1C1CCS(=O)(=O)C1` (stereo not drawn) [Compound 44, 3-(1,1-Dioxo-tetrahydro-thiophen-3-yl)-5-[1-(1,3-diphenyl-1H-pyrazol-4-yl)-meth-(Z)-ylidene]-2-thioxo-thiazolidin-4-one], the IC50 on BoNT A is > 200 µM.

As for `O=C1/C(=C/c2cn(-c3ccccc3)nc2-c2ccc(Cl)cc2)SC(=S)N1C1CCS(=O)(=O)C1` (stereo not drawn) [Compound 45, 5-[1-[3-(4-Chloro-phenyl)-1-phenyl-1H-pyrazol-4-yl]-meth-(Z)-ylidene]-3-(1,1-dioxo-tetrahydro-thiophen-3-yl)-2-thioxo-thiazolidin-4-one], the 50% inhibitory concentration (IC50) against BoNT A was > 200 µM.

For `CCOc1ccc(-c2nn(-c3ccccc3)cc2/C=C2\SC(=S)N(CC(=O)O)C2=O)cc1F` [Compound 46, (Z)-2-(5-((3-(4-ethoxy-3-fluorophenyl)-1-phenyl-1H-pyrazol-4-yl)methylene)-4-oxo-2-thioxothiazolidin-3-yl)acetic acid], the half-maximal inhibitory concentration (IC50) was 3.45 µM on lethal factor (LF) (pH 7.4, read-out: LF IC50) and > 200 µM at BoNT A.

Regarding `O=C(O)CN1C(=O)/C(=C/c2ccc(-c3ccccc3)cc2)SC1=S` [Compound 49, (Z)-2-(5-(4-phenylbenzylidene)-4-oxo-2-thioxothiazolidin-3-yl)acetic acid], the IC50 amounted to 6.2 µM on lethal factor (LF) (pH 7.4, read-out: LF IC50) and 54.6 µM against BoNT A.

Take `O=C(O)CN1C(=O)/C(=C/c2cccc(N3CCCC3)c2)SC1=S` [Compound 50, (Z)-2-(5-(3-(pyrrolidin-1-yl)benzylidene)-4-oxo-2-thioxothiazolidin-3-yl)acetic acid]: the half-maximal inhibitory concentration (IC50) at lethal factor (LF) (pH 7.4, read-out: LF IC50) is 28.1 µM; against BoNT A, > 200 µM.

Take `CN1CCCN(c2ccc(/C=C3\SC(=S)N(CC(=O)O)C3=O)cc2)CC1` [Compound 51]: the IC50 against BoNT A was > 50 µM.

Consider `O=C(O)CN1C(=O)/C(=C/c2cccc(-n3cccn3)c2)SC1=S` [Compound 52, (Z)-2-(5-(3-(1H-pyrazol-1-yl)benzylidene)-4-oxo-2-thioxothiazolidin-3-yl)acetic acid], for which the IC50 at lethal factor (LF) (pH 7.4, read-out: LF IC50) is 27.9 µM; against BoNT A, > 200 µM.

For `O=C(O)CN1C(=O)/C(=C/c2ccc3c(c2)OCO3)SC1=S` [Compound 53, (Z)-2-(5-(benzo[d][1,3]dioxol-5-ylmethylene)-4-oxo-2-thioxothiazolidin-3-yl)acetic acid], the IC50 was 83.3 µM at lethal factor (LF) (pH 7.4, read-out: LF IC50) and > 200 µM at BoNT A.

For `O=C(O)CN1C(=O)/C(=C/c2cccc3c2oc2ccccc23)SC1=S` [Compound 55, (Z)-2-(5-(dibenzofuran-6-ylmethylene)-4-oxo-2-thioxothiazolidin-3-yl)acetic acid], the IC50 on lethal factor (LF) (pH 7.4, read-out: LF IC50) stood at 2.96 µM; against BoNT A, 160 µM.

As to `O=C(O)CN1C(=O)/C(=C/c2cccc(Br)n2)SC1=S` [Compound 56, (Z)-2-(5-((6-bromopyridin-2-yl)methylene)-4-oxo-2-thioxothiazolidin-3-yl)acetic acid], the half-maximal inhibitory concentration (IC50) on lethal factor (LF) (pH 7.4, read-out: LF IC50) is 58 µM; against BoNT A, > 200 µM.
